Source: publication PMC11125018 (Pharmaceuticals, 2024)
Several values for one entry are separate records, joined by “and”; a condition that tells them apart may be missing. Equal values may be shown once. Read-outs that look alike come from different tables or passages of the source.

Columns and labels:
CB1 receptor [1] = molecular target: T1, CB1 receptor (Homo sapiens, UniProt P21554); experiment: PathHunter β-arrestin recruitment assay, agonist mode, CB1 expressing CHO-K1 cell line; assay type: cell-based; settings: for EC50: EC50 (nM), agonist effect, 90 min incubation, parentheses = SD of three independent measurements; for Hill Slope: four-parameter log-logistic fit, three measurements; for Hill Slope / Maximum RE (%): parentheses = SD; for Maximum RE (%): 100% normalized to maximum (±)-CP 55,940 stimulation, 0% to vehicle; for classification as partial agonist of the CB1 cannabinoid receptor: relative to full agonist CP 55940; for agonist property: tested up to 5 µM
T1 construct: host or cells: CHO-K1
T1 sequence (P21554 whole entry): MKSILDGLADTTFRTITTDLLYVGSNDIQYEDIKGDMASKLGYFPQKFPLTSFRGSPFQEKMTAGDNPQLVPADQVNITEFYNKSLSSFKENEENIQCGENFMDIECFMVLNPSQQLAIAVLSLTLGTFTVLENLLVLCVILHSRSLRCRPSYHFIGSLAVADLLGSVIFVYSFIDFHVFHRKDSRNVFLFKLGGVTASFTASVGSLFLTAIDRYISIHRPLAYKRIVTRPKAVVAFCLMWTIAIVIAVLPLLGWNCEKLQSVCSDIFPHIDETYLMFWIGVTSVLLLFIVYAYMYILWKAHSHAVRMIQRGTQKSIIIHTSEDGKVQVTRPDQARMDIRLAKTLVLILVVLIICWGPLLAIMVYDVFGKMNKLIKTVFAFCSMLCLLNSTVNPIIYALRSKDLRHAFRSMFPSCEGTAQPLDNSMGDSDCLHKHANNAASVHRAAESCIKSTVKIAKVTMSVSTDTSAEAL
Description: (§1) For agonist and antagonist assays, PathHunter® CHO-K1 CNR1 (Eurofins DiscoverX, Fremont, CA, USA, Catalog number: 93-0959C2) β-Arrestin cells were expanded from freezer stocks according to standard procedures provided by Eurofins. The cell line manual was followed for cell growth (including cell culture media and supplementation, the handling and preparation of cells, etc.), test procedure, and signal detection. Cells were seeded in a total volume of 20 µL (5000 cells) into white-walled, 384-well microplates and incubated at 37 °C overnight prior to testing. After preparing stock acetonitrile solution at 1 mg/mL concentration of ligand, compound intermediate concentrations were achieved by a 10-point series of 3-fold compound serial dilutions in a compound dilution buffer in a separate dilution plate.
For the agonist assay, the concentration of each dilution was prepared at 5X of the final screening concentration. An amount of 5 µL of samples was added to cells (highest final concentration = 5 µM, maximum acetonitrile = 0.2 v/v%) and incubated at 37 °C for 90 min (5% CO2). To generate the assay signal, 12.5 µL of working detection solution was added to the cells, which were then left to incubate for an hour at room temperature in the dark. The signal detection was carried out using a PerkinElmer Envision instrument to measure chemiluminescence.

CB2 receptor = settings: in vitro studies; cited from earlier work
CB1 = settings: cAMP assay, cited from earlier work; for EC50: read-out: agonist EC50
CB1 receptor [2] = molecular target: T1, CB1 receptor; experiment: cell-based; assay type: cell-based; settings: for Hill Slope / Maximum RE (%): antagonist mode, parentheses = SD; for Hill Slope: four-parameter log-logistic fit, three measurements; for Maximum RE (%): 100% normalized to maximum AM-281, 0% to vehicle
Description: as §1
For antagonist determination, cells were pre-incubated with THCV isomers, followed by agonist challenge at the EC80 concentration. Each THCV dilution was prepared at a 10X concentration relative to the intended final concentrations for screening. An amount of 2.5 µL of these samples were introduced into the cells, achieving a maximum final concentration of 5 µM for THCV and ~0.2 v/v% for acetonitrile. The assay plate was incubated at 37 °C for 30 min in an atmosphere containing 5% CO2. […] Cells were incubated for 90 min at 37 °C and 5% CO2. To generate the assay signal, 12.5 µL of working detection solution was added to the cells, which were then left to incubate for an hour at room temperature in the dark. The signal detection was carried out using a PerkinElmer Envision (Waltham, MA, USA) instrument to measure chemiluminescence.

## CCCCCc1cc(O)c2c(c1)OC(C)(C)[C@@H]1CC[C@H](C)C[C@@H]21 [9S-HHC, hexahydrocannabinol]
CB1 receptor [1]
  EC50: 624 nM
  classification as partial agonist of the CB1 cannabinoid receptor: weak
CB1 receptor [1]; agonist mode
  Hill Slope: 0.95 (0.08)
  Maximum RE (%): 20.58% and 20.58 (0.80) %
CB2 receptor
  CB2 selectivity: 1.7 times
CB1
  EC50: 57 nM

## CCCc1cc(O)c2c(c1)OC(C)(C)[C@@H]1CC=C(C)C[C@@H]21 [∆8-THCV, tetrahydrocannabivarin]
CB1 receptor [1]; agonist mode
  agonist property: failed to show any significant agonist property
CB1 receptor [2]; IC50 (nM)
  IC50: 120 nM
CB1 receptor [2]
  Hill Slope: 1.37 (0.09)
  Maximum RE (%): 97.40 (1.16) %

## CCCCCc1cc(O)c2c(c1)OC(C)(C)[C@@H]1CC[C@@H](C)C[C@@H]21 [9R-HHC, hexahydrocannabinol]
CB1 receptor [1]
  EC50: 53.4 nM and 53.5 nM
  classification as partial agonist of the CB1 cannabinoid receptor: moderate
CB1 receptor [1]; agonist mode
  Hill Slope: 0.56 (0.07)
  Maximum RE (%): 41.51% and 41.51 (1.70) %
CB2 receptor
  CB2 selectivity: 1.2 times
CB1
  fold higher agonist potency than 9S-HHC: approximately 16 fold
  EC50: 3.4 nM

## CCCCCCC(C)(C)c1ccc([C@@H]2C[C@H](O)CC[C@H]2CCCO)c(O)c1 [CP 55940, reference compound]
CB1 receptor [1]; agonist mode
  Hill Slope: 0.90 (0.10)
  Maximum RE (%): 105.50 (3.34) %

## CCCc1cc(O)c2c(c1)OC(C)(C)[C@@H]1CCC(C)=C[C@@H]21 [∆9-THCV, tetrahydrocannabivarin]
CB1 receptor [1]; CHO-K1, agonist mode, up to 5 µM, insignificant increase from baseline
  Emax: 1.19%
CB1 receptor [1]; agonist mode
  agonist property: failed to show any significant agonist property
CB1 receptor [2]
  fold less potent antagonist than AM-281: ~ 3 ×
  fold less potent antagonist than rimonabant: ~ 45 ×
  Hill Slope: 1.38 (0.18)
  Maximum RE (%): 96.46 (2.20) %
CB1 receptor [2]; IC50 (nM)
  IC50: 52.4 nM

## Cc1c(C(=O)NN2CCOCC2)nn(-c2ccc(Cl)cc2Cl)c1-c1ccc(I)cc1 [AM-281, reference compound]
CB1 receptor [2]
  Hill Slope: 0.81 (0.07)
  Maximum RE (%): 101.90 (1.63) %
CB1 receptor [2]; read-out: IC50
  IC50: 17.7 nM
